Experimental data as given in US10869931B2, “Polyethylene glycol-modified angiogenesis inhibitor HM-1 and application thereof” (NANJING ANJI BIOLOGICAL TECHNOLOGY CO.,LTD, priority 2016, dated 2020).
Marks after values point to notes of the source that are not given here. Where no end group is shown, it is not given here.

What was measured:
[1] = tested on: Pancreatic cancer tumor cells; assay: MTT proliferation inhibition, pancreatic cancer cells; format: cell-based, human; parameters: concentration or dose not given beside the values; details: 48 h
Experimental: (§1) The activity of mPEG-HM-1 to inhibit the growth of various tumor cells was examined by MTT assay. The tumor cells were cultured to a concentration of 90% or more in a 37° C., 5% CO2 incubator and collected by trypsinization. The cells were resuspended in the culture medium and counted under a microscope to adjust the cell concentration to 2×10^4 cells/mL, the cell suspension was inoculated into a 96-well plate at 100 μL/well and incubated overnight at 37° C. in a 5% CO2 incubator. mPEG-HM-1 was diluted with the culture solution to each predetermined concentration. Docetaxel is diluted to the final concentration with the culture medium. After the cells were fully attached, each dilution was added to a 96-well plate (100 μL/well). The mPEG-HM-1 dilution was added as a drug-administered group, and docetaxel was added as a positive control group, and a culture solution without any drug was used as a negative control group. Incubate for 48 h at 37° C. in a 5% CO2 incubator. 5 mg/mL of MTT was added to a 96-well plate at 20 μL per well, and incubation was continued for 4 hours. The medium was aspirated, dissolved in 150 μL of DMSO per well, and gently mixed by shaking for 10 min. The absorbance was measured at a measurement wavelength of 570 nm and a reference wavelength of 630 nm using a microplate reader, and the rate of growth inhibition (proliferation inhibition, PI) was calculated. The formula is as follows: PI (%)=1−administration group/negative group
(§2) The test was repeated 3 times independently, and the results obtained by the test were expressed as mean±SD, and the test results are shown in Table 15 to Table 18.

[2] = tested on: Breast cancer tumor cells; assay: MTT proliferation inhibition, breast cancer cells; format: cell-based, human; parameters: concentration or dose not given beside the values; details: 48 h
Experimental: as §1, §2

[3] = tested on: carrageenan-induced toe swelling in SD rats; assay: Carrageenan-induced acute toe swelling in rats; format: in vivo, rat; parameters: Swelling: unit not given here
Experimental: SD rats were divided into blank model group, dexamethasone-positive group (5 mg/kg) and mPEG-HM-1 test group. The drug was administered once a day, and the model group was given the same volume of normal saline for 3 days and fed normally. At the first hour after the last administration, 0.1 mL of 1% carrageenan was injected subcutaneously into the right hind paw of the rats to induce inflammation. The volume of the foot was measured at 1 h, 3 h, 5 h, and 7 h after inflammation. The degree of swelling of the foot was calculated according to the following formula: the degree of swelling of the foot (mL)=the volume of the foot after inflammation−the volume before inflammation. Record the number of milliliters of spilled liquid (method: use the ballpoint pen to circle as the measurement mark at the protruding point of the right joint, and then put the right hind foot of each mouse into the volume measuring device, so that the hind limb is exposed outside the cylinder, and the depth of the immersion was determined by coinciding the circle with the liquid surface. After the foot enters the liquid, the liquid level rises, and the volume of the overflow liquid is the volume of the right hind foot of the rat, and the normal volume of the right hind foot of each mouse is sequentially determined).

[4] = tested on: Gastric cancer tumor cells; assay: MTT proliferation inhibition, gastric cancer cells; format: cell-based, human; parameters: concentration or dose not given beside the values; details: 48 h
Experimental: as §1, §2

[5] = tested on: Kidney cancer tumor cells; assay: MTT proliferation inhibition, kidney cancer cells; format: cell-based, human; parameters: concentration or dose not given beside the values; details: 48 h
Experimental: as §1, §2

[6] = tested on: Ovarian cancer tumor cells; assay: MTT proliferation inhibition, ovarian cancer cells; format: cell-based, human; parameters: concentration or dose not given beside the values; details: 48 h
Experimental: as §1, §2

[7] = tested on: xylene-induced ear swelling in Kunming mice; assay: Xylene-induced ear swelling in mice; format: in vivo, mouse; details: for Inhibition rate: ear swelling vs control
Experimental: Kunming mice were used. The saline group was used as the blank control group, the aspirin group (200 mg/kg) as the positive control group, and the mPEG-HM-1 administration group as the experimental group. Mice were administered once daily for 5 consecutive days. The blank control group was given an equal volume of physiological saline. One hour after the last administration, 0.05 mL of xylene was applied to both sides of the right ear of the mice to cause inflammation, and the left ear was not coated as normal ears. After 2 h, the mice were sacrificed by dislocation, and the ears were cut along the auricle. Ear pieces were taken with a puncher, weighed, and the swelling degree and swelling rate were calculated. Swelling degree=right ear piece weight-left ear piece weight, swelling rate=(swelling degree/left ear piece weight)×100%. Statistical t-test was performed on the test results, *P<0.05 was a significant difference, and **P<0.01 was a very significant difference. See Table 31 to Table 34 for the results.

[8] = tested on: Colorectal cancer tumor cells; assay: MTT proliferation inhibition, colorectal cancer cells; format: cell-based, human; parameters: concentration or dose not given beside the values; details: 48 h
Experimental: as §1, §2

Liver cancer tumor cells = assay: MTT proliferation inhibition, liver cancer cells; format: cell-based, human; parameters: concentration or dose not given beside the values; details: 48 h
Experimental: as §1, §2

[9] = tested on: human retinal vascular endothelial cells (HRCEC); assay: MTT proliferation of human retinal vascular endothelial cells; format: cell-based; details: 48 h; for Inhibition rate: HRCEC proliferation; for A570 nm-A630 nm: HRCEC
Experimental: The activity of the angiogenesis inhibitor polypeptide to inhibit proliferation of human retinal vascular endothelial cells was examined by MTT assay. HRCEC cells were cultured in a 37° C., 5% CO2 incubator to a density of 90% or more, and collected by trypsinization. The cells were resuspended in the culture medium and counted under a microscope to adjust the cell concentration to 3.0×10^4 cells/mL. The cell suspension was inoculated into a 96-well plate at 100 μL per well and cultured overnight at 37° C. in a 5% CO2 incubator. After the cells were completely adhered, the angiogenesis inhibitor polypeptide was added as the administration group, and Avastin was used as the positive control group, and the culture media without any drug was used as a blank control group, and the culture media were diluted to each predetermined concentration. Each dilution was separately added to a 96-well plate at 100 μL per well and incubated for 48 h at 37° C. in a 5% CO2 incubator. 20 μL of 5 mg/mL MTT was added to each well of a 96-well plate and incubation was continued for 4 h. The medium was aspirated and dissolved in 100 μL of DMSO per well. […] The formula is as follows: PI (%)=1−administration group/negative group
The test was repeated 3 times independently. The results obtained by the test were expressed as mean±SD, and a statistical T test was performed. *P<0.05 was a significant difference, and **P<0.01 was a very significant difference.

[10] = 20 mg/kg once a day for 3 days, 1 h after carrageenan
[11] = 20 mg/kg once a day for 3 days, 3 h after carrageenan
[12] = 20 mg/kg once a day for 3 days, 5 h after carrageenan
[13] = 20 mg/kg once a day for 3 days, 7 h after carrageenan
[14] = 5 mg/kg once daily for 5 days, right minus left ear piece weight 2 h after xylene
[15] = 10 mg/kg once daily for 5 days, 2 h after xylene
[16] = 20 mg/kg once daily for 5 days, 2 h after xylene
[17] = 40 mg/kg once daily for 5 days, 2 h after xylene

Substance	rate of growth inhibition [1] [%]	rate of growth inhibition [2] [%]	Swelling [3, 10]	Swelling [3, 11]	Swelling [3, 12]	Swelling [3, 13]	rate of growth inhibition [4] [%]	rate of growth inhibition [5] [%]	rate of growth inhibition [6] [%]	Inhibition rate ([7]; 5 mg/kg once daily for 5 days) [%]	Swelling [7, 15]	Inhibition rate ([7]; 10 mg/kg once daily for 5 days) [%]	Swelling [7, 16]	Inhibition rate ([7]; 20 mg/kg once daily for 5 days) [%]	rate of growth inhibition [8] [%]	rate of growth inhibition (Liver cancer tumor cells) [%]	Inhibition rate ([9]; 40 μg/mL)	A570 nm-A630 nm ([9]; 40 μg/mL, MTT)	Inhibition rate ([9]; 60 μg/mL)	A570 nm-A630 nm ([9]; 60 μg/mL, MTT)	further results
mPEG2-NHS5k-Arg-Gly-Ala-Asp-Arg-Ala-Gly-Gly-Gly-Gly-Arg-Gly-Asp ({mPEG2‑NHS 5 kDa}-RGADRAGGGGRGD) [mPEG2-NHS5k-HM-1]	46.58 ± 13.12	45.69 ± 12.10	0.22 ± 0.11	0.32 ± 0.21	0.36 ± 0.12	0.32 ± 0.16	50.31 ± 13.29	47.52 ± 11.48	56.88 ± 21.07	10.02	4.94 ± 0.28* mg	20.05	4.31 ± 0.20** mg	30.23	52.37 ± 12.24	50.92 ± 11.66	50.65%**	0.6523 ± 0.08688	61.08%*	0.5144 ± 0.08531	Swelling ([3]; 10 mg/kg once a day for 3 days, 1 h after carrageenan): 0.25 ± 0.13; Swelling ([3]; 10 mg/kg once a day for 3 days, 3 h after carrageenan): 0.36 ± 0.12; Swelling ([3]; 10 mg/kg once a day for 3 days, 5 h after carrageenan): 0.43 ± 0.17; Swelling ([3]; 10 mg/kg once a day for 3 days, 7 h after carrageenan): 0.31 ± 0.15; Swelling [7, 14]: 5.56 ± 0.19 mg; Inhibition rate ([9]; 20 μg/mL): 40.94%*; A570 nm-A630 nm ([9]; 20 μg/mL, MTT): 0.7807 ± 0.09103
mPEG2-NHS10k-Arg-Gly-Ala-Asp-Arg-Ala-Gly-Gly-Gly-Gly-Arg-Gly-Asp ({mPEG2‑NHS 10 kDa}-RGADRAGGGGRGD) [mPEG2-NHS10k-HM-1]	50.23 ± 14.26	50.92 ± 13.97	0.24 ± 0.12	0.37 ± 0.16	0.42 ± 0.16	0.30 ± 0.12	55.67 ± 13.53	52.09 ± 14.91	60.69 ± 21.24		5.39 ± 0.14 mg	12.76	4.72 ± 0.72* mg	23.57	55.78 ± 15.77	54.19 ± 12.80	45.83%*	0.7160 ± 0.07829	54.72%**	0.5985 ± 0.07472	Swelling ([3]; 40 mg/kg once a day for 3 days, 1 h after carrageenan): 0.21 ± 0.10; Swelling ([3]; 40 mg/kg once a day for 3 days, 3 h after carrageenan): 0.31 ± 0.17; Swelling ([3]; 40 mg/kg once a day for 3 days, 5 h after carrageenan): 0.35 ± 0.11; Swelling ([3]; 40 mg/kg once a day for 3 days, 7 h after carrageenan): 0.33 ± 0.15; inhibition of carrageenan-induced toe swelling (in words) ([3]; rats, 40 mg/kg, once a day for 3 days): most effective; Swelling [7, 17]: 4.13 ± 0.35** mg; Inhibition rate ([7]; 40 mg/kg once daily for 5 days): 33.19%; inhibition rate of HRCEC proliferation ([9]; 80 μg/mL, MTT): 65.13%; Inhibition rate ([9]; 80 μg/mL): 65.13%*; A570 nm-A630 nm ([9]; 80 μg/mL, MTT): 0.4609 ± 0.07165
mPEG-bALD5k-Arg-Gly-Ala-Asp-Arg-Ala-Gly-Gly-Gly-Gly-Arg-Gly-Asp ({mPEG‑bALD 5 kDa}-RGADRAGGGGRGD) [mPEG-bALD5k-HM-1]	53.14 ± 10.34	50.02 ± 10.47					56.87 ± 14.41	57.63 ± 12.09	66.76 ± 18.59	10.36	4.83 ± 0.30* mg	20.47	4.18 ± 0.25** mg	31.08	59.35 ± 12.64	55.63 ± 10.27	50.48%**	0.6594 ± 0.08003	62.77%*	04958 ± 0.07902	Swelling [7, 14]: 5.44 ± 0.19 mg; Inhibition rate ([9]; 20 μg/mL): 41.82%*; A570 nm-A630 nm ([9]; 20 μg/mL, MTT): 0.7747 ± 0.08752
mPEG-bALD40k-Arg-Gly-Ala-Asp-Arg-Ala-Gly-Gly-Gly-Gly-Arg-Gly-Asp ({mPEG‑bALD 40 kDa}-RGADRAGGGGRGD) [mPEG-bALD40k-HM-1]	62.85 ± 18.74	62.45 ± 19.04					68.65 ± 16.93	60.06 ± 18.88	72.66 ± 19.03						66.90 ± 16.27	58.72 ± 10.80					Swelling [7, 17]: 5.25 ± 0.12 mg; Inhibition rate ([7]; 40 mg/kg once daily for 5 days): 13.45%; Swelling ([7]; 80 mg/kg once daily for 5 days, 2 h after xylene): 4.68 ± 0.72* mg; Inhibition rate ([7]; 80 mg/kg once daily for 5 days): 22.94%; Swelling ([7]; 160 mg/kg once daily for 5 days, 2 h after xylene): 4.06 ± 0.26** mg; Inhibition rate ([7]; 160 mg/kg once daily for 5 days): 33.09%; Inhibition rate ([9]; 80 μg/mL): 44.81%*; A570 nm-A630 nm ([9]; 80 μg/mL, MTT): 0.7349 ± 0.07082; Inhibition rate ([9]; 100 μg/mL): 55.03%**; A570 nm-A630 nm ([9]; 100 μg/mL, MTT): 0.5988 ± 0.07291; Inhibition rate ([9]; 120 μg/mL): 63.12%*; A570 nm-A630 nm ([9]; 120 μg/mL, MTT): 0.4911 ± 0.07534
